Experimental data published in EP4782453A1 (Beyang Therapeutics Co., Ltd., priority 2023, dated 2025).

Molecular target: T1, Menin-MLL (Homo sapiens, UniProt O00255)
T1 construct: His-Menin (M1-L615 end); purchased BIORTUS BP9210
T1 sequence (O00255 1-615 isoform O00255-1): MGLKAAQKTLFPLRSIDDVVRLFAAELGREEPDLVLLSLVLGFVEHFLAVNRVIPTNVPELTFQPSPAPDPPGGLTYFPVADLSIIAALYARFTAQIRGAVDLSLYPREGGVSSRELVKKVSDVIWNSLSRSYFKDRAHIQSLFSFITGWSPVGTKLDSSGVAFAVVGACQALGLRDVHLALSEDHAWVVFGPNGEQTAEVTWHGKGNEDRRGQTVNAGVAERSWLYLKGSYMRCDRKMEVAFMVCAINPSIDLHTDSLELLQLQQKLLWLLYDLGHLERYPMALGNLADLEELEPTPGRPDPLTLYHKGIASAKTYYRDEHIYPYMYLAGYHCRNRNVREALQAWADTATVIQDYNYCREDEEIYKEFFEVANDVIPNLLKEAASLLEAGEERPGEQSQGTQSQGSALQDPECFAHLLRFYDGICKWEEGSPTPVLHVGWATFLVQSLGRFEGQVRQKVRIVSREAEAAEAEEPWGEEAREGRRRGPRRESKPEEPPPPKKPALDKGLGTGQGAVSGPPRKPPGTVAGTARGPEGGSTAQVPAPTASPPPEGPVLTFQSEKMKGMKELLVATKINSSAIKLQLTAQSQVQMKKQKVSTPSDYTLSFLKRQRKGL
Test: Inhibitory activity against Menin-MLL binding (fluorescence polarization)
Details: Menin-MLL IC50, fluorescence polarization; 150 nM His-Menin, 15 nM FITC-MLL; 25°C for 60 min
Method in brief: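 Fluorescence polarization competition: compound and 150 nM His-tagged menin (residues M1-L615) sit 15 min at 25 °C in pH 7.5 HEPES buffer with NaCl, DTT and BSA; 15 nM FITC-labelled MLL peptide then binds for 60 min. IC50 fitted sigmoidally from mP values, duplicate wells.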

SMILES	IC50 [µM]
CCN(C(=O)c1cc(F)ccc1-c1cc(N2CCN(C(=O)[C@@H]3CCC(C)(C)N3)CC2)cn2c(C)nc(Cl)c12)C(C)C [Example 111]	0.038
CCN(C(=O)c1cc(F)ccc1-c1cc(C2=CCN(C(=O)C3NC4CCC3CC4)CC2)c2ccncn12)C(C)C [Example 113, N-ethyl-5-fluoro-N-(isopropyl)-2-(5-{1-[(1R,3S,4S)-2-azabicyclo[2.2.2]octan-3-carbonyl]-1,2,3,6-tetrahydropyridin-4-yl}pyrrolo[1,2-c]pyrimidin-7-yl)benzamide]	0.201
CCOC(=O)N1CCN(CCC[C@H](C(C)C)N2CC(c3cc(-c4ccc(F)cc4C(=O)N(CC)C(C)C)c4cnc(C)n4c3)C2)CC1 [Example 471]	0.0048
CCN(C(=O)c1cc(F)ccc1-c1cc(C2CN(C(=O)[C@@H]3CCCCN3)C2)cn2c(C)nc(Cl)c12)C(C)C [Example 126]	0.019
CCS(=O)(=O)N[C@H]1CC[C@H](C(C)N2CC(c3cc(-c4ccc(F)cc4C(=O)N4CCOC[C@H]4C)c4cnn(C)c4c3)C2)CC1 (stereo partly drawn) [Example 178, N-[(1r,4r)-4-{1-[3-(4-{4-fluoro-2-[(3R)-3-methylmorpholin-4-carbonyl]phenyl}-1-methyl-1H-indazol-6-yl)azacyclobutan-1-yl]ethyl}cyclohexyl]ethan-1-sulfonamide]	0.115
CCN(C(=O)c1cc(F)ccc1-c1cc(C2CN(C(=O)C3NC4CCC3CC4)C2)cn2c(C)nc(Cl)c12)C(C)C [Example 108, 2-(1-chloro-3-methyl-6-{1-[(1R,3S,4S)-2-azabicyclo[2.2.2]octan-3-carbonyl]azacyclobutan-3-yl}imidazo[1,5-a]pyridin-8-yl)-N-ethyl-5-fluoro-N-(isopropyl)benzamide]	0.0072
CCN(C(=O)c1cc(F)ccc1-c1cc([C@@H]2CCN(C[C@H]3CC[C@H](NS(=O)(=O)CC)CC3)C2)nc2c1cnn2C)C(C)C [Example 11-1]	0.744
Cc1nc(F)c2c(-c3ccc(F)cc3C(=O)N3CCOCC3C)cc(C3CN(C(C)C4CCN(C(=O)C5CC5F)CC4)C3)cn12 (centres unmarked) [Example 301]	0.009
CCN(C(=O)c1cc(F)ccc1-c1cc(C2CCN(C[C@H]3CC[C@H](NS(=O)(=O)CC)CC3)C2)nc2c1cnn2C)C(C)C (mixture of isomers) [Example 11, N-ethyl-5-fluoro-2-[1-methyl-6-(1-{[(1r,4r)-4-ethanesulfonamidocyclohexyl]methyl}pyrrolidin-3-yl)-1H-pyrazolo[3,4-b]pyridin-4-yl]-N-(isopropyl)benzamide]	0.155

Same assay, conditions: fluorescence polarization; 150 nM His-Menin, 15 nM FITC-MLL; 25°C for 60 min; read-out: Menin-MLL IC50

IC50 [µM]	SMILES
0.13	CCN(C(=O)c1cc(F)ccc1-c1cc(C2CN([C@@H](CCCN3CCC(OCCO)CC3)C(C)C)C2)cc2c1cnn2C)C(C)C [Example 401-1]
0.231	CC(C)N(CC(F)F)C(=O)c1cc(F)ccc1-c1cc([C@@H]2CCN(CCN3CCC(NC(=O)OC(C)(C)C)CC3)C2)cc2c1cnn2C [Example 166-1, N-(1-{2-[(3S)-3-(4-{2-[(2,2-difluoroethyl)(isopropyl)aminoformyl]-4-fluorophenyl}-1-methyl-1H-indazol-6-yl)pyrrolidin-1-yl]ethyl}piperidin-4-yl)tert-butyl carbamate]
0.023	Cc1nc(F)c2c(-c3ccc(F)cc3C(=O)N3CCOC[C@H]3C)cc(C3CN([C@@H](CN4CCN(C)CC4)C(C)C)C3)cn12 [Example 368-1, (3R)-4-[5-fluoro-2-(1-fluoro-3-methyl-6-{1-[(2R)-3-methyl-1-(4-methylpiperazin-1-yl)butan-2-yl]azacyclobutan-3-yl}imidazo[1,5-a]pyridin-8-yl)benzoyl]-3-methylmorpholine]
0.003	CCN(C(=O)c1cc(F)ccc1-c1cc(CC2CN([C@@H](CCCN(C)CCOC)C(C)C)C2)n2c(C)cncc12)C(C)C [Example 296-2, N-ethyl-5-fluoro-2-[6-({1-[(3S)-6-[(2-methoxyethyl)(methyl)amino]-2-methylhexan-3-yl]azacyclobutan-3-yl}methyl)-4-methylpyrrolo[1,2-a]pyrazin-8-yl]-N-(isopropyl)benzamide]
0.009	CCNC(=O)N1CCC([C@@H](C)N2CC(c3cc(-c4ccc(F)cc4C(=O)N(CC)C(C)C)c4c(F)nc(C)n4c3)C2)CC1 [Example 282-1, N-ethyl-4-[(1R)-1-[3-(8-{2-[ethyl(isopropyl)aminoformyl]-4-fluorophenyl}-1-fluoro-3-methylimidazo[1,5-a]pyridin-6-yl)azacyclobutan-1-yl]ethyl]piperidin-1-formamide]
0.002	CCN(C(=O)c1cc(F)ccc1-c1cc(C2CN([C@@H](C)C3CCN(C(C)=O)CC3)C2)cn2c(C)nc(F)c12)C(C)C [Example 288-2]
0.15	CCN(C(=O)c1cc(F)ccc1-c1cc(C2CN([C@@H](CN3CCN(CCO)CC3)C(C)C)C2)cc2c1cnn2C)C(C)C [Example 416-1, N-ethyl-5-fluoro-2-(6-{1-[(2R)-1-[4-(2-hydroxyethyl)piperazin-1-yl]-3-methylbutan-2-yl]azacyclobutan-3-yl}-1-methyl-1H-indazol-4-yl)-N-(isopropyl)benzamide]
1.15	Cc1nc(F)c2c(-c3ccc(F)cc3C(=O)N3CCOC[C@H]3C)cc(C3CN([C@@H](CN4CCN(C(=O)OC(C)(C)C)CC4)C(C)C)C3)cn12 [Example 366-1, 4-[(2R)-2-[3-(1-fluoro-8-{4-fluoro-2-[(3R)-3-methylmorpholin-4-carbonyl]phenyl}-3-methylimidazo[1,5-a]pyridin-6-yl)azacyclobutan-1-yl]-3-methylbutyl]piperazin-1-tert-butyl carboxylate]

More lines, now with the values behind:

SMILES	IC50 [µM]
CCN(C(=O)c1cc(F)ccc1-c1cc(C2CCN(Cc3ccc(N4CCOC4=O)cc3)C2)cn2cncc12)C(C)C (centres unmarked) [Example 41]	0.092
CCN(C(=O)C(C)C)c1cc(F)ccc1-c1cc(N2CCN(C(=O)C3NC4CCC3CC4)CC2)cn2c(C)ncc12 [Example 71, N-ethyl-N-[5-fluoro-2-(3-methyl-6-{4-[(1R,3S,4S)-2-azabicyclo[2.2.2]octan-3-carbonyl]piperazin-1-yl}imidazo[1,5-a]pyridin-8-yl)phenyl]-2-methylpropionamide]	0.015
Cc1nc(F)c2c(-c3ccc(F)cc3C(=O)N3CCOC[C@H]3C)cc(C3CN(CC4CCOC4)C3)cn12 (some centres unmarked) [Example 240]	0.0535
CCN(C(=O)c1cc(F)ccc1-c1cc(N2CCN(CCc3ccc(-c4cc(OC)c(OC)nn4)cc3)CC2)cn2c(C)ncc12)C(C)C [Compound 70, 2-[6-(4-{2-[4-(5,6-dimethoxypyridazin-3-yl)phenyl]ethyl}piperazin-1-yl)-3-methylimidazo[1,5-a]pyridin-8-yl]-N-ethyl-5-fluoro-N-(isopropyl)benzamide]	0.093
CCN(C(=O)c1cc(F)ccc1-c1cc(N2CCN(C(=O)[C@@H]3CCCN3)CC2)cn2c(C)nc(Cl)c12)C(C)C [Example 114]	0.019
CCN(C(=O)c1cc(F)ccc1-c1cc(C2CN([C@H](CCCN3CCN(C4(CC#N)COC4)CC3)C(C)C)C2)cn2c(C)ncc12)C(C)C [Example 490, 2-(6-{1-[(3R)-6-{4-[3-(cyanomethyl)oxacyclobutan-3-yl]piperazin-1-yl}-2-methylhexan-3-yl]azacyclobutan-3-yl}-3-methylimidazo[1,5-a]pyridin-8-yl)-N-ethyl-5-fluoro-N-(isopropyl)benzamide]	0.0029
CCN(C(=O)c1cc(F)ccc1-c1cc(C2CN(C(CCN3CCN(CCO)CC3)C(C)C)C2)cn2c(C)ncc12)C(C)C (centres unmarked) [Example 456, N-ethyl-5-fluoro-2-[6-(1-{1-[4-(2-hydroxyethyl)piperazin-1-yl]-4-methylpentan-3-yl}azacyclobutan-3-yl)-3-methylimidazo[1,5-a]pyridin-8-yl]-N-(isopropyl)benzamide]	0.014
CCN(C(=O)c1cc(F)ccc1-c1cc(C2CN(C(C[C@@H]3CN(C(=O)OC(C)(C)C)CCO3)C(C)C)C2)cn2c(C)ncc12)C(C)C (stereo partly drawn) [Example 461, (2R)-2-{2-[3-(8-{2-[ethyl(isopropyl)aminoformyl]-4-fluorophenyl}-3-methylimidazo[1,5-a]pyridin-6-yl)azacyclobutan-1-yl]-3-methylbutyl}morpholin-4-tert-butyl carboxylate]	0.043
COc1cc(-c2ccc(CCN3CCN(c4cc(-c5ccc(F)cc5C(=O)N5CCOC[C@H]5C)c5cnc(C)n5c4)CC3)cc2)nnc1OC [Example 86]	0.152
Cc1nc(F)c2c(-c3ccc(F)cc3C(=O)N(CC(F)F)C(C)C)cc(C3CN(C(=O)[C@@H]4C[C@@H](C)CCN4)C3)cn12 [Example 155]	0.023
C=C1CN[C@H](C(=O)N2CCN(c3cc(-c4ccc(F)cc4C(=O)N(CC)C(C)C)c4c(Cl)nc(C)n4c3)CC2)C1 [Example 117]	0.021
CCN(C(=O)c1cc(F)ccc1-c1cc(C2(O)CN(C[C@H]3CC[C@H](NC(=O)OC(C)(C)C)CC3)C2)cc2c1cnn2C)C(C)C [Example 79, N-[(1r,4r)-4-{[3-(4-{2-[ethyl(isopropyl)aminoformyl]-4-fluorophenyl}-1-methyl-1H-indazol-6-yl)-3-hydroxylazacyclobutan-1-yl]methyl}cyclohexyl]tert-butyl carbamate]	0.279
